The subject of experiment [1] is Staphylococcus aureus. Kind of experiment: Antibacterial activity against Staphylococcus aureus after 24 hrs by microtiter dilution assay. The format is functional, organism-based.
The target in experiment [2] is Nitric oxide synthase 1 (Rattus norvegicus, UniProt P29476). The experiment in a line: Inhibition of rat cerebella nNOS synthase assessed as [3H]arginine to [3H]citrulline conversion by microbeta scintillation counting.
The subject of experiment [3] is NCI-H460. The experiment in a line: Cytotoxicity against human H460 cells upto […] by SRB assay. The format is functional, cell-based. (The SRB assay estimates cell density from bound dye.)
Experiment [4] deals with MCF7. Kind of experiment: Cytotoxicity against human MCF7 cells upto […] by SRB assay. The class given is functional, cell-based.
Experiment [5] has as its system SF-268. The experiment in a line: Cytotoxicity against human SF268 cells upto […] by SRB assay. The format is functional, cell-based.
Experiment [6] concerns HCT-116. The experiment in a line: Cytotoxicity against human HCT116 cells. The format is functional, cell-based.

Nitric oxide synthase 1, sequence (P29476 whole entry): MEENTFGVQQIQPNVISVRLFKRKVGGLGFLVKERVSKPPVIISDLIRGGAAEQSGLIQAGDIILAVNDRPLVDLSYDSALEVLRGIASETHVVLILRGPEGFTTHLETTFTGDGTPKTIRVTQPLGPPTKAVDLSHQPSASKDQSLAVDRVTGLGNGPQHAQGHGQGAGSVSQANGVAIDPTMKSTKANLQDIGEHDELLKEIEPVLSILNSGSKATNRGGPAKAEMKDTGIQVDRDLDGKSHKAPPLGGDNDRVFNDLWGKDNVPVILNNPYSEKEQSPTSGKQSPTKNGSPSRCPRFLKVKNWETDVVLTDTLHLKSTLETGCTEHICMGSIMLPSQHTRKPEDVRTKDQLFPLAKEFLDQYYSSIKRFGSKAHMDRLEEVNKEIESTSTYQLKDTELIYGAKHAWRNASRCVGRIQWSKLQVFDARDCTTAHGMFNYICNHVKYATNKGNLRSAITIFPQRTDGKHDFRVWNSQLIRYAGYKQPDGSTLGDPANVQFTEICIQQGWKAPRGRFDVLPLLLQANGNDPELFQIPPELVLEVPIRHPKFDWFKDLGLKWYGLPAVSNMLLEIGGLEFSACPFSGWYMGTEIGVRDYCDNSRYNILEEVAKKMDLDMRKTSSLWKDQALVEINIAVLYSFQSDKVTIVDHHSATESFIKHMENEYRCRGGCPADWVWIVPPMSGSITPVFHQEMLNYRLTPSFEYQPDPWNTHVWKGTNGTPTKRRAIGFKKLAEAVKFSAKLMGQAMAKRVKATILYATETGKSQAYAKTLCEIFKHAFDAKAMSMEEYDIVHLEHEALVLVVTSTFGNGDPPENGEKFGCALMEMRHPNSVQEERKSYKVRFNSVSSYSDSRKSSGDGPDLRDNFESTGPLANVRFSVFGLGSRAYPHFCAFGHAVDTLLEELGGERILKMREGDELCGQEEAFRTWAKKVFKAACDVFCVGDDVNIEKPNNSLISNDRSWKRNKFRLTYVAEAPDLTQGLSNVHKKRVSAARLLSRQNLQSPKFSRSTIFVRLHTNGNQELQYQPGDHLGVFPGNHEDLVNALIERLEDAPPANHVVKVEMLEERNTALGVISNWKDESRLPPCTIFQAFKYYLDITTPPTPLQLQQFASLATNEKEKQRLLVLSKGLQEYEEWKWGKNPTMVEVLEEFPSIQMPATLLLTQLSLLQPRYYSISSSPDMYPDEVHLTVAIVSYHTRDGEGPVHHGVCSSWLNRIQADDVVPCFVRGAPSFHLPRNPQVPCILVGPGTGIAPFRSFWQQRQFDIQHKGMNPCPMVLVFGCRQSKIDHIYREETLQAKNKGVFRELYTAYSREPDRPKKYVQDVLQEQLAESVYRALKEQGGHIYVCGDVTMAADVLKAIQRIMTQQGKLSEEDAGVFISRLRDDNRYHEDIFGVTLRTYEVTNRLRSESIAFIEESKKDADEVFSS

What is called IC50 is the concentration that inhibits the measured activity by half. Consider `N=C(N)NCCCCNC(=O)[C@@]1(O)[C@H](c2c[nH]c3cc(Br)ccc23)[C@@](O)(Cc2c[nH]c3cc(Br)ccc23)C(=O)N1CCCCNC(=N)N`, for which the IC50 in experiment [1] is 6.5 µM; in experiment [2], 4.3 µM. Also, the Activity result in experiment [3], in experiment [4] and in experiment [5] was “Not toxic” each time.
In experiment [6], `CC(=O)NCCc1cc(O)c2nccc3c2c1Nc1ccccc1-3` [STYELSAMINE B] had an IC50 of 1600 nM.
Turning to `N=C(N)NCCCCNC(=O)[C@]1(O)[C@H](c2c[nH]c3cc(Br)ccc23)[C@@](O)(Cc2c[nH]c3cc(Br)ccc23)C(=O)N1CCCCNC(=N)N`, the figures for the IC50 in experiment [1] and in experiment [2] were 19 µM and 41.7 µM, respectively. For the same molecule, the Activity entry in experiment [3], in experiment [4] and in experiment [5] was “Not toxic” each time.
With `NCC(O)c1cc(O)c2nccc3c2c1Nc1ccccc1-3` (centres undefined) [STYELSAMINE A], the IC50 in experiment [6] amounted to 1600 nM.
Turning to `N=C(N)NCCCCNC(=O)[C@@]1(O)[C@H](c2c[nH]c3cc(Br)ccc23)[C@](O)(Cc2c[nH]c3cc(Br)ccc23)C(=O)N1CCCCNC(=N)N`, in experiment [2], the IC50 was 5.8 µM. Moreover, the Activity result in experiment [3], in experiment [4] and in experiment [5] was “Not toxic” each time.
The molecule `NCCc1cc(O)c2nccc3c2c1Nc1ccccc1-3` [STYELSAMINE D] had an IC50 in experiment [6] of 1600 nM.
On the same count and under the same terms, under `N=C(N)NCCCCNC(=O)C(O)(O)C(c1c[nH]c2cc(Br)ccc12)C(O)(Cc1c[nH]c2cc(Br)ccc12)C(=O)NCCCCNC(=N)N` (centres undefined) [EUSYNSTYELAMIDE] stands 100000 nM.
On the same count and under the same terms, under `O=Cc1cc(O)c2nccc3c2c1Nc1ccccc1-3` [STYELSAMINE C] stands 1600 nM.

The values above are taken from ChEMBL document CHEMBL1153038, “Eusynstyelamides A, B, and C, nNOS inhibitors, from the ascidian Eusynstyela latericius” (J Nat Prod, 2009).
